Experimental data: ChEMBL document CHEMBL1124130 (J Med Chem, 1988)
pIC50: −log10 of the molar value.

How the values were obtained:
[1] = target: T1, Muscarinic acetylcholine receptor M2 (Rattus norvegicus, UniProt P10980); assay: Binding affinity towards muscarinic receptor of gastric fundus containing Muscarinic acetylcholine receptor M2; format: tissue-based, Stomach
T1 sequence (P10980 whole entry): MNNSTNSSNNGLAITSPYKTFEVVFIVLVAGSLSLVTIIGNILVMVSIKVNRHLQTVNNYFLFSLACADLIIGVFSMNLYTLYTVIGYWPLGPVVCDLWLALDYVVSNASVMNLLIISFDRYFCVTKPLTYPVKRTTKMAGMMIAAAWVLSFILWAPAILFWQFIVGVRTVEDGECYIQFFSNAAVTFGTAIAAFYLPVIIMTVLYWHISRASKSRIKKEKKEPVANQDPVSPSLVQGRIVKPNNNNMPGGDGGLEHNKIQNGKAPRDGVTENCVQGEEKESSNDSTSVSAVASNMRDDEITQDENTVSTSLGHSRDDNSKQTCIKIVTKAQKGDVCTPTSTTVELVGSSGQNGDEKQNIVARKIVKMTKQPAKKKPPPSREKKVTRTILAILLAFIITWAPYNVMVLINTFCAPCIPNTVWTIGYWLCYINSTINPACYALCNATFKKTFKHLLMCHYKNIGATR

[2] = target: T2, Muscarinic acetylcholine receptor M1 (Rattus norvegicus, UniProt P08482); assay: biochemical
T2 sequence (P08482 whole entry): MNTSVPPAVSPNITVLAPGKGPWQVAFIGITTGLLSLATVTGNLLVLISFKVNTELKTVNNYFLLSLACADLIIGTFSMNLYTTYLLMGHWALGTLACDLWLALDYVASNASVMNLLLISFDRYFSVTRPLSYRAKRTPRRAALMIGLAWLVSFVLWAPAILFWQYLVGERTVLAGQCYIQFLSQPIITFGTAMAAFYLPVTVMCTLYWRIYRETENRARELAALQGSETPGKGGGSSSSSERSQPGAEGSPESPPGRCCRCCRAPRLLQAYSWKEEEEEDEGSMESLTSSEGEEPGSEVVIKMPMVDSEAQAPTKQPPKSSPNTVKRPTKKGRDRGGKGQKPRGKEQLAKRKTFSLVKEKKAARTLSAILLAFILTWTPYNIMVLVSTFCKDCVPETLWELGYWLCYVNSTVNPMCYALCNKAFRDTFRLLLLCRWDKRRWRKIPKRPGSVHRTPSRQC
Description: Binding affinity towards Muscarinic acetylcholine receptor M1 of cerebral cortex

[3] = target: T2, Muscarinic acetylcholine receptor M1; assay: Binding affinity towards muscarinic receptor of cerebral cortex containing Muscarinic acetylcholine receptor M1; format: tissue-based
[4] = Partition coefficient (log P) at pH 7.4; format: physicochemical; conditions: octanol/water

pIC50 [1]	pIC50 [2]	pIC50 [3]	logD [4]	Compound
6.15	7.15	–	–	CN1CCC(CC(=O)N2c3ccccc3C(=O)Nc3cccnc32)CC1
8.10	–	8.00	–	CN1CCCCC1CC(=O)N1c2ccccc2C(=O)Nc2cccnc21 (stereo not drawn)
6.05	7.22	–	–	CN1CCN(NC(=O)N2c3ccccc3C(=O)Nc3cccnc32)CC1
6.05	7.00	–	–	CN1CCC(OC(=O)N2c3ccccc3C(=O)Nc3cccnc32)CC1
6.70	–	6.70	–	CN(C)CCC(=O)N1c2ccccc2C(=O)Nc2cccnc21
7.00	–	7.30	–	CN(C)CCCC(=O)N1c2ccccc2C(=O)Nc2cccnc21
6.22	6.82	–	–	CN1CCN(C(=O)N2c3ccccc3C(=O)Nc3cccnc32)CC1
6.46	7.30	–	-0.15	CN1CCN(CC(=O)N2c3ccccc3NC(=O)c3cscc32)CC1
6.15	5.82	–	–	CN(C)CC(=O)N1c2ccccc2C(=O)Nc2cccnc21
5.92	6.70	–	–	CN1CCC(NC(=O)N2c3ccccc3C(=O)Nc3cccnc32)CC1
7.00	7.64	–	0.11	CN1CCN(CC(=O)N2c3ccccc3NC(=O)c3ccccc32)CC1
5.52	6.52	–	-0.42	CN1CCN(CC(=O)N2c3ccccc3NC(=O)c3cccnc32)CC1
4.92	–	5.00	–	CN1CCN(CCC(=O)N2c3ccccc3C(=O)Nc3cccnc32)CC1
6.30	6.22	–	–	CN(C)CCCCC(=O)N1c2ccccc2C(=O)Nc2cccnc21
6.82	–	7.00	–	CN1CCCC(CC(=O)N2c3ccccc3C(=O)Nc3cccnc32)CC1 (stereo not drawn)
7.30	–	7.70	–	CN1CCC(CC(=O)N2c3ccccc3C(=O)Nc3cccnc32)C1 (stereo not drawn)
6.92	–	7.00	–	CN1CCCC(CC(=O)N2c3ccccc3C(=O)Nc3cccnc32)C1 (stereo not drawn)
–	–	–	-0.64	CN1CCN(CC(=O)N2c3ccccc3C(=O)Nc3cccnc32)CC1 [PIRENZEPINE]
